Calls of active or inactive are those of the source.

For assay [1], the target named is T1, Nucleotide-binding oligomerization domain-containing protein 1 (Homo sapiens, UniProt Q9Y239).
T1 sequence (Q9Y239 whole entry): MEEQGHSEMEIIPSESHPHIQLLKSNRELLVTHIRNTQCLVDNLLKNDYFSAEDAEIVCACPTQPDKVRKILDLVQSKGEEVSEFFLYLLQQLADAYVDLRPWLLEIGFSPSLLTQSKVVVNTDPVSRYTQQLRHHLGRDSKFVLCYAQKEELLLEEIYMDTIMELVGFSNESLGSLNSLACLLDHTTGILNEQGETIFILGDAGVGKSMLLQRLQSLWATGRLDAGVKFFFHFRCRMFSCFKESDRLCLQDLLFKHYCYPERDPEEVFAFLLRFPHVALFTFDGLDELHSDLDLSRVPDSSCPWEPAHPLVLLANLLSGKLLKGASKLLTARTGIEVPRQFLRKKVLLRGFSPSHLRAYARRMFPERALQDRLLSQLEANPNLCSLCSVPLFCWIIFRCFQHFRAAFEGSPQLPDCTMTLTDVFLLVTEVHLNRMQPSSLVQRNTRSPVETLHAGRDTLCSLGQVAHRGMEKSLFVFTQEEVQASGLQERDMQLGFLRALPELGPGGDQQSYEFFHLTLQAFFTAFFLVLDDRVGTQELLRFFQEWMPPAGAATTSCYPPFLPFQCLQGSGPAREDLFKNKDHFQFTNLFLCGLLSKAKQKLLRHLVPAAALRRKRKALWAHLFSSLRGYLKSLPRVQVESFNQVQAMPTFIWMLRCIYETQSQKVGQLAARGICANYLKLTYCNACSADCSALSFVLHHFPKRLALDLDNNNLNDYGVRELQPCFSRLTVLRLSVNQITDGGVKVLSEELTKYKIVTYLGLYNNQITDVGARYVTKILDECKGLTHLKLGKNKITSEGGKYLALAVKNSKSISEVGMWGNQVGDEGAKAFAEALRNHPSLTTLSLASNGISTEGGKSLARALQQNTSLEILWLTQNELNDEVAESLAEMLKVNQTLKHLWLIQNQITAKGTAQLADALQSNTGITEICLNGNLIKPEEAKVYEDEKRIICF
Kind of assay: NOD1 signaling inhibitors, SAR follow-up, revised (AID 2333). It is filed as functional.

Assay [2] deals with T2, Nucleotide-binding oligomerization domain-containing protein 2 (Homo sapiens, UniProt Q9HC29). The experiment in a line: PubChem AID 2334. It is filed as functional.
T2 sequence (Q9HC29 whole entry, the tested form may be a part): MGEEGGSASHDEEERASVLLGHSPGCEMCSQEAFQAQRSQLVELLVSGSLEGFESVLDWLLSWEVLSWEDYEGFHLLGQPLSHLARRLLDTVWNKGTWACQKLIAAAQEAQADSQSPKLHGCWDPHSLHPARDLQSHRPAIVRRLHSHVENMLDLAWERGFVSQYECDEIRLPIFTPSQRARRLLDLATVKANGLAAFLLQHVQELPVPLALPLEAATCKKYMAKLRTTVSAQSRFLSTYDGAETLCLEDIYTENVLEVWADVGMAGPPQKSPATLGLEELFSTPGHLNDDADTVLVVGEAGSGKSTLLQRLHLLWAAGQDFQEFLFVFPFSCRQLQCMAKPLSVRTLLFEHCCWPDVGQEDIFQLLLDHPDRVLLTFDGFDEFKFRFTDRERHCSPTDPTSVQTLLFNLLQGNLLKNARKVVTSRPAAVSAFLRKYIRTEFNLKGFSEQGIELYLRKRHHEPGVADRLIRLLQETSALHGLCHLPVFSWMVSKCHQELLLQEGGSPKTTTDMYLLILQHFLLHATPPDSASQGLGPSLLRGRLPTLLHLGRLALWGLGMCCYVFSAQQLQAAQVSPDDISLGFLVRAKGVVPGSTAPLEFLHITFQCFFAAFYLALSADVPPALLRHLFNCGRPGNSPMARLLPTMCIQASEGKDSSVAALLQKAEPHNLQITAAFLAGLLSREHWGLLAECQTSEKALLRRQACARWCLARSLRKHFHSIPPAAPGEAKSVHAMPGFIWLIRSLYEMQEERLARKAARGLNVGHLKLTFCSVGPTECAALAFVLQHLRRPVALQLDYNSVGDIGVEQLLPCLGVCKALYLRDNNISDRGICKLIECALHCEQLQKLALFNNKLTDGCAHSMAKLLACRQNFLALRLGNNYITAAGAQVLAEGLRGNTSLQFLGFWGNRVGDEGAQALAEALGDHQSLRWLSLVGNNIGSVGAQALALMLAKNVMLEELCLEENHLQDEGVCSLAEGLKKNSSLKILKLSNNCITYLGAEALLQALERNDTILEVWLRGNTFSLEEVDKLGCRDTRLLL
Assay [3] concerns HEK293. The experiment in a line: cells. The conditions noted are these: Homo sapiens.
The next assay deals with Tumor necrosis factor (Homo sapiens, UniProt P01375). The experiment in a line: TNFa-triggered NF-kB activation inhibitors, SAR follow-up, cell-based, revised (AID 2337). The format is functional.
Sequence of Tumor necrosis factor (P01375 whole entry): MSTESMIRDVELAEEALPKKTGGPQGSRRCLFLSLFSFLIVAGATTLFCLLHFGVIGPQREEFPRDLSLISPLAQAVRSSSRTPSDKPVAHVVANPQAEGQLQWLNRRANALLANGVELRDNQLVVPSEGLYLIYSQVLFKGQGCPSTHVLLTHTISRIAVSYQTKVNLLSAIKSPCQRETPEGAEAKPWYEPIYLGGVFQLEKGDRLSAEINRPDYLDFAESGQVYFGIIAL
Assay [4] is described as follows: inhibitors of intracellular T. cruzi replication, confirmation, NIH3T3 host cells, beta-gal luminescence (AID 2044).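 Also: intracellular parasites grown in NIH/3T3 mouse fibroblasts as host cells; luminescent beta-galactosidase reporter signal from transgenic T. cruzi replicating inside host cells; inhibitors lower the luminescence signal.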 It is filed as functional, cell-based.
Assay [5] has as its target Neurotensin receptor type 1 (Homo sapiens, UniProt P30989). It is filed as functional.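 Also: Image-based confirmatory dose-response assay measuring agonist activity at NTR1; NTR1-expressing U2OS osteosarcoma cells imaged for beta-arrestin GFP spot formation; agonist potency where compounds increase beta-arrestin recruitment.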
A short description of assay [6]: cytotoxicity toward NIH3T3 fibroblasts, dose response, counter-screen, cell-based, ATP luminescence, mouse fibroblasts (AID 2010).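 Also: cells exposed to compound for about 90 hours before reading.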 It is filed as functional. For orientation: A counterscreen serves to expose hits that act by an unwanted route or on another target.
Assay [7] can be described thus: Luminescence Cell-Based Dose Retest to Confirm Inhibitors of Cancer Stem Cells. [Related pubchem assays (depositor defined):AID2717, AID2721]. It is filed as functional. The settings on record: Homo sapiens.
The subject of assay [8] is HEK293. Kind of assay: cells. It is filed as functional, cell-based. The settings on record: Homo sapiens.
For assay [9], the target named is T2, Nucleotide-binding oligomerization domain-containing protein 2. Kind of assay: NOD2 signaling inhibitors, cell-based, luminescence, uHTS, HEK293 (AID 1566). It is filed as functional.
Assay [10] relates to HEK293. The experiment in a line: cells. The format is functional, cell-based. The settings on record: Homo sapiens. The source holds these as a separate data set.
The subject of assay [11] is HEK293. The experiment in a line: cells. It is filed as functional, cell-based. The conditions noted are these: Homo sapiens. This is another data set of the same source.
For assay [12], the system named is HEK293. The experiment in a line: NOD1 signaling inhibitors, primary screen, cell-based, luminescence, uHTS (AID 1578). It is filed as functional. The settings on record: Homo sapiens.
The test system of assay [13] is HEK293. The experiment in a line: NOD2 signaling inhibitors in MDP-stimulated cells, cell-based, uHTS, luminescence (AID 2001). It is filed as functional. The conditions noted are these: Homo sapiens.
In assay [14] the target is Polyadenylate-binding protein 1 (Homo sapiens, UniProt P11940). Kind of assay: PABP inhibition in translation initiation, SAR follow-up (AID 435018). The format is functional.
Sequence of Polyadenylate-binding protein 1 (P11940 whole entry): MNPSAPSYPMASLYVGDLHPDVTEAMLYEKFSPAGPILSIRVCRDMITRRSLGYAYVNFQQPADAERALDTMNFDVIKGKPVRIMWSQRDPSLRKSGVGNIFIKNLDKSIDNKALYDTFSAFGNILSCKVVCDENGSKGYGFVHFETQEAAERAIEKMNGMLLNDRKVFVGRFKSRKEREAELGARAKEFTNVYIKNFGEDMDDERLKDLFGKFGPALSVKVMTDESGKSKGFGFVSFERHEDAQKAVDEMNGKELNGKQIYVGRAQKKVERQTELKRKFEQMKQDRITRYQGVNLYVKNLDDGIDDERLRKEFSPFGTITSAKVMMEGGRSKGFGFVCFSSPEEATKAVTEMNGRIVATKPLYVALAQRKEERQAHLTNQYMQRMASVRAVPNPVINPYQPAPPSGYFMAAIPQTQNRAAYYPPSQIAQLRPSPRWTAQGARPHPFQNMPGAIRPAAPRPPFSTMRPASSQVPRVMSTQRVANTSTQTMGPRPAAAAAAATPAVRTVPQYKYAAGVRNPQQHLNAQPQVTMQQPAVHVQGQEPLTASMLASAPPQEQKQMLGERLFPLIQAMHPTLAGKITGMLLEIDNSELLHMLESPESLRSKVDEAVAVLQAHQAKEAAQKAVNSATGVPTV
For assay [15], the target named is Eukaryotic translation initiation factor 4H (Homo sapiens, UniProt Q15056). Kind of assay: eIF4H inhibition in translation initiation, SAR follow-up (AID 435011). It is filed as functional.
The target in assay [16] is T3, RNA-binding protein pos-1 (Caenorhabditis elegans, UniProt G5EF15).
T3 sequence (G5EF15 whole entry): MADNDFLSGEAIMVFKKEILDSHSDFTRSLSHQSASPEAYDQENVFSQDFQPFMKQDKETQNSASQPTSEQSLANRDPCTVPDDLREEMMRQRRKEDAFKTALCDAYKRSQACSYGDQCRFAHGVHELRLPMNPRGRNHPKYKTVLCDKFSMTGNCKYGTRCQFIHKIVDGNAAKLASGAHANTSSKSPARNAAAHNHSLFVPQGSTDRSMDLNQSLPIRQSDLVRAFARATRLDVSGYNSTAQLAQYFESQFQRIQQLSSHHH
The experiment in a line: inhibitors of POS-1/mex-3 RNA binding, dose response, biochemical, fluorescence polarization (AID 1964).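 Also: purified POS-1 fused to maltose binding protein made in E. coli; potency of compounds blocking POS-1 binding to fluorescent RNA.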

Assay [17] deals with T4, Zinc finger protein mex-5 (Caenorhabditis elegans, UniProt Q9XUB2).
T4 sequence (Q9XUB2 whole entry): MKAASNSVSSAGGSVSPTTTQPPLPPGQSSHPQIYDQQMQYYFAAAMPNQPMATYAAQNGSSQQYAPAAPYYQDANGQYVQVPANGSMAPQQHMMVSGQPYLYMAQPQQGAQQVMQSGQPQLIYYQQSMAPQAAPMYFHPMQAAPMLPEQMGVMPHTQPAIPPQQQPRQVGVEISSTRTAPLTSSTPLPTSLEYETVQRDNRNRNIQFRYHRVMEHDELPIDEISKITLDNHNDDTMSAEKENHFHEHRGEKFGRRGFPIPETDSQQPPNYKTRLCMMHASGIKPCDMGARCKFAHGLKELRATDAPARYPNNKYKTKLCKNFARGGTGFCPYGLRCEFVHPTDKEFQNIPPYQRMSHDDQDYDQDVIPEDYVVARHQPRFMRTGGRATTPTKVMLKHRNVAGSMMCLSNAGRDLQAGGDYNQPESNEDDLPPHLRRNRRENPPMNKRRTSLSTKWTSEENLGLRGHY
Kind of assay: MEX-5/TCR-2 RNA interaction inhibitors, dose response, biochemical, C. elegans, fluorescence polarization (AID 1960). On the technique in general: Polarisation of emitted light reports the rotation of a fluorescent probe.

Assay [18] can be described thus: Counterscreen for IDE inhibitors: Luminescence-based cell-based high throughput dose response assay to identify compounds that are cytotoxic to HEK cells. [Related pubchem assays: 434962 (Primary screen (IDE inhibitors in singlicate)), 449730 (Counterscreen (Cytotoxicity in triplicate)), 435028 (Confirmation (IDE inhibitors in triplicate)) …. It is filed as functional. The settings on record: HEK293.

In the next assay the target is T5, Insulin-degrading enzyme (Homo sapiens, UniProt P14735).
T5 sequence (P14735 whole entry): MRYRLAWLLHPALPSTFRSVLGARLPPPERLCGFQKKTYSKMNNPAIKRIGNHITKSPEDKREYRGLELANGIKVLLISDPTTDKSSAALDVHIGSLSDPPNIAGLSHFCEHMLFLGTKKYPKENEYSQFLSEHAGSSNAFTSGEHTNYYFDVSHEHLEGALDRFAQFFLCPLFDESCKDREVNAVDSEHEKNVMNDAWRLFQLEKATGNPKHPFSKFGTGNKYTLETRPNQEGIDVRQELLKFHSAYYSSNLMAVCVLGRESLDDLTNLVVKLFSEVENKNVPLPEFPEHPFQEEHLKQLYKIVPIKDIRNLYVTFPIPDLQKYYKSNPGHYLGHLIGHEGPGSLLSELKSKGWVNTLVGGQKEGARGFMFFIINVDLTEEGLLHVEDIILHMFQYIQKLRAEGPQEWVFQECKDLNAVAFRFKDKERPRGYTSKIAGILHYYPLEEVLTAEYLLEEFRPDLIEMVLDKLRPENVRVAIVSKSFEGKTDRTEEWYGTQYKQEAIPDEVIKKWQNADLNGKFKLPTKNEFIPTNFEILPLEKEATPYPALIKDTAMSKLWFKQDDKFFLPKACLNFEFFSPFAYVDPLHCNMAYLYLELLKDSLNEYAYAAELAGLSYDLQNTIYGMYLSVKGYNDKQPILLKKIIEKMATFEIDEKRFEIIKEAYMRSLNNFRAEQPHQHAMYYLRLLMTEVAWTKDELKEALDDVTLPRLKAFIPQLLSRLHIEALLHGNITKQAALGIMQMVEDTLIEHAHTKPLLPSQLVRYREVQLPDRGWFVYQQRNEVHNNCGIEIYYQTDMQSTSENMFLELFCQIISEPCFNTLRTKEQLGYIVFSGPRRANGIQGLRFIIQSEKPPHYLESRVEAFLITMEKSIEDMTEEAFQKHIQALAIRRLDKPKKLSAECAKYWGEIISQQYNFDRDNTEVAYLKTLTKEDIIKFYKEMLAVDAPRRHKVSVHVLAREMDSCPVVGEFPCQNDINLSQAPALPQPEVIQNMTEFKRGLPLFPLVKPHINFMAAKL
Kind of assay: Dose Response: Fluorescence polarization-based cell-based high throughput dose response assay for inhibitors of insulin-degrading enzyme (IDE). [Related pubchem assays: 434962 (Primary screen (IDE inhibitors in singlicate)), 449730 (Counterscreen (Cytotoxicity in triplicate)), 435028 (Confirmation (IDE inhibitors in triplicate)), 434984 (Summary …. It is filed as functional.
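For AC50 in this document: cells exposed to compound for roughly 70 hours or longer before luminescence read.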

Sequence of Neurotensin receptor type 1 (P30989 whole entry): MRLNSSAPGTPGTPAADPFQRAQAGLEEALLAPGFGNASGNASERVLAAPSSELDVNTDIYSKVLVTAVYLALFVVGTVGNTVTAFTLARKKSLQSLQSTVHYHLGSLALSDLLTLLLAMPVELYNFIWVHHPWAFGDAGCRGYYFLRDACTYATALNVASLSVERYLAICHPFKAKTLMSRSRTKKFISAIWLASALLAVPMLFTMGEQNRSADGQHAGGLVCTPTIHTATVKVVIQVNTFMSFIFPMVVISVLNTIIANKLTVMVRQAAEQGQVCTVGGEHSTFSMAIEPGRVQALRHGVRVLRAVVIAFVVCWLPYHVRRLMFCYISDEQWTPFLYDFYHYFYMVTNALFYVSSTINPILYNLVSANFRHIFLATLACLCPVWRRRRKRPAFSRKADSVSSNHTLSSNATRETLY

A word on the IC50: it is the concentration that inhibits the measured activity by half. `COC(=O)c1c(NC(=O)c2cccc(F)c2)sc2c1CCC(C)C2` (stereo not drawn): the IC50 (in assay [1]; in assay [2]; in the assay on HEK293 [3]; on Tumor necrosis factor) was > 20 µM (inactive) each time.
Broadly, the EC50 is the concentration at which the effect is half-maximal. For orientation: AC50 means the concentration giving half of the maximal activity seen. As to `Oc1ccc(-c2cc(-c3ccc(O)cc3)nc(-c3ccccc3)n2)cc1`, the concentration for a half-maximal effect (EC50) in assay [4] was 3.86 µM (active); in [5], 19.4 µM (active); in assay [6] it was > 60 µM (not active). The AC50 in assay [7] was 1.81 µM (active).
`CC1CCc2c(sc(NC(=O)/C=C/c3cccs3)c2C(=O)O)C1` (stereo not drawn): the IC50 was > 20 µM (inactive) with HEK293 [8]; > 20 µM (inactive) in the assay with HEK293 [10]; > 20 µM (inactive) in the assay on HEK293 [11]; 1.55 µM (active) in assay [1]; > 20 µM (inactive) with HEK293 [3]; 16.7 µM (inactive) in the assay on HEK293 [13]. Further, the IC50 at Tumor necrosis factor is 9.63 µM (active). In addition, the figures for the EC50 (in assay [9]; in the assay with HEK293 [12]) were > 20 µM (inactive) and 6.14 µM (active), respectively.
Take `O=C(Nc1ccc(F)cc1)C1CCCN1C(=O)Oc1ccccc1` (stereo not drawn): the IC50 in [14] and in [15] was > 100 µM (inactive) throughout.
As for `O=C1CCC/C(=N/NC(=O)c2sc3ccccc3c2Cl)C1`, the values for the 50% effective concentration (EC50) in assay [16] and in assay [17] were 22 µM (active) and 20.5 µM (active), respectively. Further, the IC50 in [18] was > 55.7 µM (not active); against Insulin-degrading enzyme, 26.3 µM (not active).
